Test results taken from patent EP1790337A2, “Methods and compounds for treating depression and other disorders” (priority 1998, dated 2000).
Structures can show the parent of a compound that is named as a salt.

Experiments:
NMDA receptor [1] = assay: NMDA assay: fura-2 measurement of cytosolic calcium in cultured rat cerebellar granule cells; format: cell-based
Procedure: All culture media, antibiotics, and enzymes, with the exception of fetal calf serum (Hyclone Laboratories, Logan, UT), were purchased from Sigma Chemical Co., St. Louis, MO. Fura-2/AM was obtained from Molecular Probes, Eugene, OR, and was prepared freshly in dimethylsulfoxide (DMSO) before use. Ionomycin (Calbiochem) was stored as a stock solution in DMSO. Nifedipine (Sigma) and nimodipine (RBI) were dissolved in absolute ethanol. […] All other agents were dissolved in phosphate-buffered saline (PBS), and adjusted to pH 7.4
Briefly, primary cultures of cerebellar granule neurons were obtained from 8-day-old rats and plated onto squares of Aclar plastic coated with poly-L-lyaine. The plastic squares were placed in 12-well culture plates, and ~7.5 x 10^5 cells were added to each well. […] No changes of culture medium were made until the cells were used for fluorescence recording 6-8 days after plating.
The cells were then rinsed with the same buffer, lacking fura-2/AM, and maintained at room temperature until used for measurement of fluorescence, the Aclar squares were transferred into quartz cuvettes containing 2 ml of the HEPES buffer. […] Fluorescence was measured using excitation and emission wavelengths of 340 and 510 nm, respectively.

[2] = biological target: norepinephrine transporter site (Rattus norvegicus, UniProt Q63380); assay: Norepinephrine reuptake inhibition assay ([3H]nisoxetine binding, forebrain membranes); conditions: read-out: NE Uptake, mean % inhibition
Sequence of norepinephrine transporter site (Q63380 1-617): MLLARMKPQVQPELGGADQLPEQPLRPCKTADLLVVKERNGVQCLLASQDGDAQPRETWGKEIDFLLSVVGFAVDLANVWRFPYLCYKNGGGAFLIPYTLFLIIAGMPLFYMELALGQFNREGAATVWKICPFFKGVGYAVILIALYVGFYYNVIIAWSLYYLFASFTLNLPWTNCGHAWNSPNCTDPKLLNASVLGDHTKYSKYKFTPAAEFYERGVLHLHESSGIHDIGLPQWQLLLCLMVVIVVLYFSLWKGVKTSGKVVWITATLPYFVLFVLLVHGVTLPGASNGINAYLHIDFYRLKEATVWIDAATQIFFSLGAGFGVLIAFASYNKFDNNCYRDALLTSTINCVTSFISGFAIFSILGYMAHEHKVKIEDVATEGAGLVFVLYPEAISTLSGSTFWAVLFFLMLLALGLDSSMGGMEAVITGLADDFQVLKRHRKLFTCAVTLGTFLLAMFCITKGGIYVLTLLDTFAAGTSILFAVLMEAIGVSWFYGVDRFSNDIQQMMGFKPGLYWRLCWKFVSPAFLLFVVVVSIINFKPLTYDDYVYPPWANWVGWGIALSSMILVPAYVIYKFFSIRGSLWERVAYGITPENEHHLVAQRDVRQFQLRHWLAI
Procedure: (§1) Monoamine transporter binding assays (reuptake inhibition assays) were performed by NovaScreen using standard radioligand binding assays. The transporter binding assays are described briefly below:
(§2) Reactions were terminated by rapid vacuum filtration onto glass fiber filters.

[3] = biological target: dopamine transporter site (Cavia porcellus, UniProt H0WCX4); assay: Dopamine reuptake inhibition assay ([3H]WIN 35428 binding, striatal membranes); set-up: species or system Guinea pig; conditions: read-out: DA Uptake, mean % inhibition; for inhibition at 0.1 µM: @ 100 nM (top number); for inhibition at 10 µM: @ 10.0 µM (bottom number)
Sequence of dopamine transporter site (H0WCX4 1-619): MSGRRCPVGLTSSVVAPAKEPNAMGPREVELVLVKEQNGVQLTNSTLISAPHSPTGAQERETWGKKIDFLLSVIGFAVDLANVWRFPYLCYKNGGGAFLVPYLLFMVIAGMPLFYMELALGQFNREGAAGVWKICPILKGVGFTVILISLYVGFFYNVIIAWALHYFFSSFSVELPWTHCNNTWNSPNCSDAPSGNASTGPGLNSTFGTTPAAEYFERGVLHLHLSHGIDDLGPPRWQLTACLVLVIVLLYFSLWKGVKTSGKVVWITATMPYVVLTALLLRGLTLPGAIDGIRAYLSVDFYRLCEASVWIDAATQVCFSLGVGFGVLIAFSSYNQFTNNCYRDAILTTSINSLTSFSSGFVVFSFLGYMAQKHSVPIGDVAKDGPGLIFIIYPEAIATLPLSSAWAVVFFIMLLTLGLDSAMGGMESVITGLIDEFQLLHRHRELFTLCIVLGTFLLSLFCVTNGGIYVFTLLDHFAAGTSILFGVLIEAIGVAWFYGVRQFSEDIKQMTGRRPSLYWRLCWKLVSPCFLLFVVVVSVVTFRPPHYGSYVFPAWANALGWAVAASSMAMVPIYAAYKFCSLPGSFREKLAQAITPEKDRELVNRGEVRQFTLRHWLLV
Procedure: as §1, §2

NMDA receptor [4] = assay: [3H]MK-801 binding assay, synaptic plasma membranes from rat cortex; conditions: read-out: [^3H]MK-801 data IC50
Procedure: Synaptic plasma membranes (SPMs) from rat cortex were prepared as follows. […] The cortices from 25 rats were thawed and pooled. […] The extensive washing procedure utilized in this assay was designed to minimize the concentrations of glutamate and glycine (co-agonists at the NMDA receptor-ionophore complex) present in the membrane preparation.
On the day of assay, aliquots of SPM were thawed and resuspended in 75 vols of 5 mM K-EDTA, pH 7.0.
The SPM pellet was resuspended in assay buffer (30 mM EPPS, 1 mM K-EDTA, pH 7.0) by polytron. […] Binding was started by the addition of the tissue homogenate. The assay was terminated by the addition of 4 ml ice-cold buffer, followed by filtration over glass-fiber filters (Schleicher & Schuell No. 30) on a Millipore 12-well filtration manifold. […] Radioactivity on the filters was measured using Fisherbrand Scinti-Safe scintillation cocktail. Samples were shaken for 45-60 min on a shaker platform to solubilize the radioactivity. Counting for ^3H was performed in a Beckman 6000IC LS Scintillation Counter for 4 min per sample.

Row | Structure (SMILES) | IC50 (NMDA receptor [1]; fura-2 [Ca2+]i, read-out: fura2 data IC50) | inhibition at 0.1 µM [2] | inhibition at 10 µM [2] | inhibition at 0.1 µM [3] | inhibition at 10 µM [3] | IC50 (NMDA receptor [4]) | IC50 (NMDA receptor [1]; read-out: fura2 data IC50, fura-2 [Ca2+]i)
1 | NCCC1c2ccccc2CCc2ccccc21 [Compound 156, 5-(2-Aminoethyl)-5H-10, 11-dihydrodibenzo [a,d] cycloheptene hydrochloride] | 69 nM | – | – | – | – | – | –
2 | Fc1ccc([C@@H]2CCNC[C@H]2COc2ccc3c(c2)OCO3)cc1 [Paroxetine, reference compound] | – | < 20% | 50% | < 20% | 97% | – | –
3 | NCCC(Oc1cccc(F)c1)c1cccc(F)c1 (stereo not drawn) [Compound 119, 3-(3-Fluorophenoxy)-3-(3-fluorophenyl)-1-propylamine] | – | 8.9% | 19.4% | 1.9% | 58.3% | 87 nM | 115 nM
4 | CNCCC(Oc1ccc(C(F)(F)F)cc1)c1ccccc1 (stereo not drawn) [Fluoxetine] | – | – | – | – | 78% | – | –
